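Exposure lasted 48 hours, with cells grown in 96-well plates and compounds tested at five concentrations. Abbreviation: GI50, concentration required for 50% inhibition of growth. TGI marks complete inhibition of growth.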
Key:
Assay in all cases: NCI anticancer screen, dose series, 48 h; in the data active = GI50 below about 0.43 µM; inactive = the rest
SF-268 CNS = system: SF-268 CNS
T-47D breast = system: T-47D breast
SR leukemia = system: SR leukemia
ACHN renal = system: ACHN renal
MCF7 breast = system: MCF7 breast
KM12 colon = system: KM12 colon
HOP-62 NSCLC = system: HOP-62 NSCLC
SW-620 colon = system: SW-620 colon
RXF 393 renal = system: RXF 393 renal
SK-MEL-28 melanoma = system: SK-MEL-28 melanoma
HOP-92 NSCLC = system: HOP-92 NSCLC
NCI-H226 lung = system: NCI-H226 lung
A549 NSCLC = system: A549 NSCLC
CCRF-CEM leukemia = system: CCRF-CEM leukemia
SNB-75 CNS = system: SNB-75 CNS
RPMI-8226 leukemia = system: RPMI-8226 leukemia
TK-10 renal = system: TK-10 renal
SF-539 CNS = system: SF-539 CNS
HCT-116 colon = system: HCT-116 colon
IGROV1 ovarian = system: IGROV1 ovarian
HCT-15 colon = system: HCT-15 colon
SF-295 CNS = system: SF-295 CNS
HCC-2998 colon = system: HCC-2998 colon
SK-MEL-5 melanoma = system: SK-MEL-5 melanoma
OVCAR-8 ovarian = system: OVCAR-8 ovarian
SK-MEL-2 melanoma = system: SK-MEL-2 melanoma
UO-31 renal = system: UO-31 renal
LOX IMVI melanoma = system: LOX IMVI melanoma
COLO 205 colon = system: COLO 205 colon
HT29 colon = system: HT29 colon
EKVX NSCLC = system: EKVX NSCLC
A498 renal = system: A498 renal
SK-OV-3 ovarian = system: SK-OV-3 ovarian
SNB-19 CNS = system: SNB-19 CNS
NCI-H23 lung = system: NCI-H23 lung
MOLT-4 leukemia = system: MOLT-4 leukemia
OVCAR-5 ovarian = system: OVCAR-5 ovarian
PC-3 prostate = system: PC-3 prostate
NCI/ADR-RES ovarian = system: NCI/ADR-RES ovarian
HS 578T breast = system: HS 578T breast
OVCAR-3 ovarian = system: OVCAR-3 ovarian
M14 melanoma = system: M14 melanoma
NCI-H460 lung = system: NCI-H460 lung
OVCAR-4 ovarian = system: OVCAR-4 ovarian
K-562 leukemia = system: K-562 leukemia
CAKI-1 renal = system: CAKI-1 renal
UACC-257 melanoma = system: UACC-257 melanoma
MDA-MB-231 breast = system: MDA-MB-231 breast
DU-145 prostate = system: DU-145 prostate
MDA-MB-435 = system: MDA-MB-435
HL-60(TB) leukemia = system: HL-60(TB) leukemia
786-0 renal = system: 786-0 renal
NCI-H522 lung = system: NCI-H522 lung
UACC-62 melanoma = system: UACC-62 melanoma
MALME-3M melanoma = system: MALME-3M melanoma
U251 CNS = system: U251 CNS
SN12C renal = system: SN12C renal
BT-549 breast = system: BT-549 breast

O=C(Nc1ccc(-n2cc(-c3ccncc3)c(-c3ccc(Cl)c(O)c3)n2)cc1)c1cc(Cl)cc(Cl)c1
active: GI50 (RXF 393 renal) 0.291 µM
> 24.6 µM: TGI (CAKI-1 renal)
7.94 µM: TGI (NCI-H522 lung)
4.23 µM: TGI (786-0 renal)
> 28.1 µM: TGI (UACC-62 melanoma)
> 31.6 µM: TGI (HL-60(TB) leukemia)
> 21.8 µM: TGI (HCT-15 colon)
2.93 µM: TGI (SK-MEL-5 melanoma)
> 30.8 µM: TGI (SK-MEL-28 melanoma)
2.62 µM: TGI (LOX IMVI melanoma)
97.5 µM: TGI (OVCAR-5 ovarian)
8.81 µM: TGI (MALME-3M melanoma)
2.79 µM: TGI (SF-295 CNS)
18.8 µM: TGI (HOP-62 NSCLC)
> 23.6 µM: TGI (HCC-2998 colon) | TGI (HT29 colon)
0.879 µM: TGI (RXF 393 renal)
> 100 µM: TGI (SF-268 CNS) | TGI (T-47D breast) | TGI (SR leukemia) | TGI (ACHN renal) | TGI (MCF7 breast) | TGI (HOP-92 NSCLC) | TGI (NCI-H226 lung) | TGI (A549 NSCLC) | TGI (CCRF-CEM leukemia) | TGI (SNB-75 CNS) | TGI (TK-10 renal) | TGI (SF-539 CNS) | TGI (HCT-116 colon) | TGI (IGROV1 ovarian) | TGI (OVCAR-8 ovarian) | TGI (SK-MEL-2 melanoma) | TGI (UO-31 renal) | TGI (COLO 205 colon) | TGI (EKVX NSCLC) | TGI (A498 renal) | TGI (SK-OV-3 ovarian) | TGI (SNB-19 CNS) | TGI (NCI-H23 lung) | TGI (MOLT-4 leukemia) | TGI (PC-3 prostate) | TGI (NCI/ADR-RES ovarian) | TGI (HS 578T breast) | TGI (OVCAR-3 ovarian) | TGI (NCI-H460 lung) | TGI (OVCAR-4 ovarian) | TGI (K-562 leukemia) | TGI (UACC-257 melanoma) | TGI (DU-145 prostate) | TGI (MDA-MB-435) | TGI (U251 CNS) | TGI (SN12C renal) | TGI (BT-549 breast)
> 28.8 µM: TGI (SW-620 colon)
4.01 µM: TGI (MDA-MB-231 breast)
4.14 µM: TGI (RPMI-8226 leukemia)
6.67 µM: TGI (M14 melanoma)
inactive: GI50 (SF-268 CNS) > 100 µM | GI50 (T-47D breast) > 100 µM | GI50 (SR leukemia) 3.33 µM | GI50 (ACHN renal) 10.4 µM | GI50 (MCF7 breast) 6.21 µM | GI50 (KM12 colon) 2.72 µM | GI50 (HOP-62 NSCLC) 2.49 µM | GI50 (SW-620 colon) 3.72 µM | GI50 (SK-MEL-28 melanoma) 2.42 µM | GI50 (HOP-92 NSCLC) 5.57 µM | GI50 (NCI-H226 lung) > 100 µM | GI50 (A549 NSCLC) > 28 µM | GI50 (CCRF-CEM leukemia) 4.25 µM | GI50 (SNB-75 CNS) 2.79 µM | GI50 (RPMI-8226 leukemia) 0.793 µM | GI50 (TK-10 renal) > 19.9 µM | GI50 (SF-539 CNS) 1.88 µM | GI50 (HCT-116 colon) 2.69 µM | GI50 (IGROV1 ovarian) > 100 µM | GI50 (HCT-15 colon) 1.31 µM | GI50 (SF-295 CNS) 0.738 µM | GI50 (HCC-2998 colon) 3.41 µM | GI50 (SK-MEL-5 melanoma) 1.46 µM | GI50 (OVCAR-8 ovarian) 14.4 µM | GI50 (SK-MEL-2 melanoma) 5.24 µM | GI50 (UO-31 renal) 3.94 µM | GI50 (LOX IMVI melanoma) 1.19 µM | GI50 (COLO 205 colon) 9.36 µM | GI50 (HT29 colon) 2.68 µM | GI50 (EKVX NSCLC) 50.7 µM | GI50 (A498 renal) 17.3 µM | GI50 (SK-OV-3 ovarian) > 21.2 µM | GI50 (SNB-19 CNS) > 36.2 µM | GI50 (NCI-H23 lung) 7.41 µM | GI50 (MOLT-4 leukemia) 5.71 µM | GI50 (OVCAR-5 ovarian) 8.42 µM | GI50 (PC-3 prostate) 3.87 µM | GI50 (NCI/ADR-RES ovarian) 6.1 µM | GI50 (HS 578T breast) 4.3 µM | GI50 (OVCAR-3 ovarian) > 100 µM | GI50 (M14 melanoma) 1.95 µM | GI50 (NCI-H460 lung) 4.03 µM | GI50 (OVCAR-4 ovarian) > 94 µM | GI50 (K-562 leukemia) 1.11 µM | GI50 (CAKI-1 renal) 2.03 µM | GI50 (UACC-257 melanoma) 5.68 µM | GI50 (MDA-MB-231 breast) 0.802 µM | GI50 (DU-145 prostate) > 32.8 µM | GI50 (MDA-MB-435) 3.45 µM | GI50 (HL-60(TB) leukemia) 4.41 µM | GI50 (786-0 renal) 1.53 µM | GI50 (NCI-H522 lung) 2.31 µM | GI50 (UACC-62 melanoma) 2.96 µM | GI50 (MALME-3M melanoma) 2.56 µM | GI50 (U251 CNS) 3.93 µM | GI50 (SN12C renal) > 100 µM | GI50 (BT-549 breast) 2.53 µM
> 29.4 µM: TGI (KM12 colon)
